{"source": "patent US20260070924A1", "about": "“INDAZOLE MACROCYCLES AND THEIR USE” (BLOSSOMHILL THERAPEUTICS, INC., priority 2022, published 2026)", "key": {"[1]": {"system": "SW480 tumor", "test": "Cell-derived xenograft (CDX) tumor model", "type": "in vivo", "conditions": "mice, oral 25 mg/kg QD, 28 days", "experimental": "(§1) Tumor cells were cultured using standard techniques described above and were harvested and pelleted by centrifugation at 1000 rpm for 5 minutes. The pelleted cells were washed once with serum-free medium followed by subsequent re-suspension in the serum-free medium supplemented with 50% matrigel (Corning, Inc). Five million tumor cells were implanted subcutaneously to the right flank of each mouse, followed by tumor volume and body weight measurement once or twice per week with an electronic caliper (Fowler) and a balance, respectively. When the average tumor size reached a pre-determined volume, the mice were grouped and treated with Ex. 6. One group of mice were treated with vehicle as control. During treatment, mice were monitored daily by cage side observation. The tumor volume (TV) and body weight was measured twice or three times per week during the treatment. Study ended either after 4-5 weeks of treatment or tumor volume of any mice reached 1000 or 2000 mm^3. Tumor growth inhibition (TGI) was be calculated as follows: […]"}, "[2]": {"system": "IMR-32 tumor", "test": "Cell-derived xenograft (CDX) tumor model", "type": "in vivo", "conditions": "IMR-32 CDX, mice, oral 25 mg/kg QD, 8 days", "experimental": "as §1"}, "[3]": {"system": "MOLM-13 tumor", "test": "Cell-derived xenograft (CDX) tumor model", "type": "in vivo", "conditions": "MOLM-13 CDX, mice, 13 days", "experimental": "as §1"}, "[4]": {"system": "MV-4-11 tumor", "test": "Cell-derived xenograft (CDX) tumor model", "type": "in vivo", "conditions": "MV-4-11 CDX, mice, 20 days", "experimental": "as §1"}, "[5]": {"system": "SW403 tumor", "test": "Cell-derived xenograft (CDX) tumor model", "type": "in vivo", "conditions": "mice, oral 25 mg/kg QD, 20 days", "experimental": "as §1"}, "[6]": {"system": "BaF3 FLT3-ITD", "test": "Cell proliferation panel (CellTiter-Glo 2.0, 5 days)", "type": "cell-based", "conditions": "murine pro-B cell line expressing FLT3-ITD", "text": "(§2) Ba/F3 cells were purchased from DSMZ. The FLT3-ITD gene was synthesized at GenScript and cloned into pCDH-CMV-MCS-EF1-Puro plasmid (System Biosciences, Inc). FLT3-ITD/D835V and FLT3-ITD/F691L cDNA clones were made at GenScript by PCR and confirmed by sequence. Ba/F3 FLT3-ITD, FLT3-ITD/D835V and FLT3-ITD/F691L cell lines were generated by infecting Ba/F3 cells with lentivirus containing FLT3-ITD, FLT3-ITD/D835V or FLT3-ITD/F691L genes. Stable cell lines were selected by puromycin treatment, followed by IL-3 withdrawal.\n(§3) Cell proliferation assay was carried out in a panel of 108 cell lines. 1000 (attached cells) or 3000 (suspension cells) cells/100 μl per well were seeded in 96 well black plate with a clear bottom (Corning #3904). Compounds were added using Tecan D300e Digital Dispenser in 1:3 titration for 9 doses. Plates were incubated for 5 days at 37° C. and 5% CO2. Cell proliferation was measured using CellTiter-Glo 2.0 luciferase-based ATP detection assay (Promega, Madison, WI) at 50 μl per well following the manufacturer's protocol. Plates were then read on a TECAN Sparks multimode microplate reader. Data was analyzed using GraphPad Prism 9 (GraphPad Software, San Diego, CA) to obtain IC50 values. IC50 values were determined using Prism software (GraphPad Software, San Diego, CA)."}, "[7]": {"system": "BaF3 FLT3-ITD/D835V", "test": "Cell proliferation panel (CellTiter-Glo 2.0, 5 days)", "type": "cell-based", "conditions": "murine pro-B cell line expressing FLT3-ITD/D835V", "text": "as §2, §3"}, "[8]": {"system": "BaF3", "test": "Cell proliferation panel (CellTiter-Glo 2.0, 5 days)", "type": "cell-based", "conditions": "murine IL-3 dependent pro-B cell line, with 1 ng/mL mouse IL-3", "text": "as §2, §3"}, "[9]": {"system": "BaF3 FLT3-ITD/F691L", "test": "Cell proliferation panel (CellTiter-Glo 2.0, 5 days)", "type": "cell-based", "conditions": "murine pro-B cell line expressing FLT3-ITD/F691L", "text": "as §2, §3"}, "[10]": {"target": "CLK4 (Homo sapiens (Human), UniProt Q9HAZ1)", "sequence (Q9HAZ1 whole entry)": "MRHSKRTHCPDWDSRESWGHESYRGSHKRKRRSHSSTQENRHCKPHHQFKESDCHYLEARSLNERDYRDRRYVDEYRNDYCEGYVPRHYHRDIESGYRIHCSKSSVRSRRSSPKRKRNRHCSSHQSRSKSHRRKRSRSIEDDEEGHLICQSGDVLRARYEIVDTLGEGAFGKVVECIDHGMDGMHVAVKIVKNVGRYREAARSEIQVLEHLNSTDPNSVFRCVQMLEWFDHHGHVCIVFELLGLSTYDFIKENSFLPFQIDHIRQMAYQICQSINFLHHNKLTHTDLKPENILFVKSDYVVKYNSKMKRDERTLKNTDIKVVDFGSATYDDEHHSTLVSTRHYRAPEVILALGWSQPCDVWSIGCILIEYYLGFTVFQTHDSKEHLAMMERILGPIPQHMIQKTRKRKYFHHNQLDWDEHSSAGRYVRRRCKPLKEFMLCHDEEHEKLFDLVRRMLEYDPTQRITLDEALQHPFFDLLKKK", "test": "CLK kinase activity assay (ADP-Glo)", "type": "biochemical", "experimental": "(§4) Kinase protein and substrate were pre-diluted in the HEPES assay buffer (100 mM HEPES, pH 7.5, 0.01% Triton X-100, 0.1% BSA, 5 mM MgCl2, 1 mM DTT, 10 μM Sodium Orthovanadate, 10 μM Beta-Glycerophosphate) dispensed into 384 well plate (5 μL per well). Control samples (0%-inhibition in the absence of inhibitor, DMSO only) and 100%-inhibition (in the absence of enzyme) were assembled in replicates of six and were used to calculate %-inhibition in the presence of compounds. Test compounds were added to the protein samples by acoustic dispensing (Labcyte Echo550). Concentration of DMSO was equalized to 1% in all samples. Reactions were initiated by addition of ATP by acoustic dispensing (Labcyte Echo550) and incubated according to assay specific incubation time. After incubation, 5 uL of Promega ADP-Glo reagent was added and incubated for 40 minutes. After 40 minutes, 10 uL of Promega kinase detection reagent was added. After 10 min of incubation with Kinase detection reagent, the luminescence was read on microplate reader (Biotek Synergy)."}, "[11]": {"target": "CLK1 (Homo sapiens (Human), UniProt P49759)", "sequence (P49759 whole entry)": "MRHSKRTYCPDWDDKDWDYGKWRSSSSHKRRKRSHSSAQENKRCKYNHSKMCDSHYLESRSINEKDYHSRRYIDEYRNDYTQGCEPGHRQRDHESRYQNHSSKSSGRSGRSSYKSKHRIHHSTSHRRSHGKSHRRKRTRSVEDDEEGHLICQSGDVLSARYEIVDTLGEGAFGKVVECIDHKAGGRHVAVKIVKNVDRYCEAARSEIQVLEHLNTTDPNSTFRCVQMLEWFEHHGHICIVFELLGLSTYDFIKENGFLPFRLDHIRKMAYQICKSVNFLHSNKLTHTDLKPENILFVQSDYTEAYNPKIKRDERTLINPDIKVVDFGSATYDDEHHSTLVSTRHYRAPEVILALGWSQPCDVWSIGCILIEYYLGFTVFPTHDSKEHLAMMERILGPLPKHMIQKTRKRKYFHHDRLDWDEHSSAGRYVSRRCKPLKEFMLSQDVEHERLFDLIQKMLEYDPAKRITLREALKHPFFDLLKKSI", "test": "CLK kinase activity assay (ADP-Glo)", "type": "biochemical", "experimental": "as §4"}, "[12]": {"target": "CLK2 (Homo sapiens (Human), UniProt P49760)", "sequence (P49760 whole entry)": "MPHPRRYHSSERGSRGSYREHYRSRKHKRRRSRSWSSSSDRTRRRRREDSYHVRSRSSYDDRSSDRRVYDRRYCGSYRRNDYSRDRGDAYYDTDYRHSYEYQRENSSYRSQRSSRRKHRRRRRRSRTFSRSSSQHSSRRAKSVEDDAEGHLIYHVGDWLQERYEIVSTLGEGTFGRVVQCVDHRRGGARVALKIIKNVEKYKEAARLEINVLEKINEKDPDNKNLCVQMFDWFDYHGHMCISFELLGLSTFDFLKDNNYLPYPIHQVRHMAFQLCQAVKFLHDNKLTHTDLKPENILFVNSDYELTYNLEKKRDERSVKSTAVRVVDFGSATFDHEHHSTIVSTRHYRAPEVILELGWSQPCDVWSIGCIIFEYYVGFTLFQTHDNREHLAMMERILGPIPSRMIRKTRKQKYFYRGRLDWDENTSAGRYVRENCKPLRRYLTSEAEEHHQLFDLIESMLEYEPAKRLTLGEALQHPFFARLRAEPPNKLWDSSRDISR", "test": "CLK kinase activity assay (ADP-Glo)", "type": "biochemical", "experimental": "as §4"}, "[13]": {"target": "CLK3 (Homo sapiens (Human), UniProt P49761)", "sequence (P49761 whole entry)": "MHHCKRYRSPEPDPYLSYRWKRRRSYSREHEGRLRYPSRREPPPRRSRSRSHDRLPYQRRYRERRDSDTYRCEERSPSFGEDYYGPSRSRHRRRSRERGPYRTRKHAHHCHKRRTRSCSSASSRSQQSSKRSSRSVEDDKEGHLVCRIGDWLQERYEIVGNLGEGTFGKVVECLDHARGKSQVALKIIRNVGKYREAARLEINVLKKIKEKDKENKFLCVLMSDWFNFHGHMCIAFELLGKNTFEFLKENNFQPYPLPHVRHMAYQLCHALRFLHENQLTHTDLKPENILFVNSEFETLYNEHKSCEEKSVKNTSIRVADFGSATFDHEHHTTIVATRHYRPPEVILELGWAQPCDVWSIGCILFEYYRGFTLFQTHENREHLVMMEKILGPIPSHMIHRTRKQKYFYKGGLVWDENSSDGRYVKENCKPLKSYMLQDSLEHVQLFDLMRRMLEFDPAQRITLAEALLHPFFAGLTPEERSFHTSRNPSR", "test": "CLK kinase activity assay (ADP-Glo)", "type": "biochemical", "experimental": "as §4"}, "[14]": {"system": "BCLxS/xL", "test": "Alternative splicing ratio by qPCR in MV-4-11", "type": "cell-based", "conditions": "DMSO = 1", "experimental": "Alternative splicing ratio of RNA transcripts was measured by qPCR in MV-4-11 and MOLM-13 cell lines. Cells were plated in 24 well plates at 1 million cells per well and then treated with compounds at different concentrations, with DMSO only as control. […] Total RNA was extracted using the RNA Purification Kit (Invitrogen). 2 μg of RNA was used for cDNA synthesis using cDNA synthesis kit (ThermoFisher) and 20 ng of cDNA was used for qPCR using PROFLEX 96-Well PCR System (ThermoFisher).\n• BCLxS/xL (SYBR Green, IDT)"}}}
{"smiles": "CCc1nn(C)c2c1/C=C/c1n[nH]c3ccc(cc13)-c1cnn(C)c1OCCN(C)C2=O", "note": "[Ex. 6, (17E)-16-ethyl-8,12,14-trimethyl-2,11,12,14-tetrahydro-8H-3,5-ethenotripyrazolo[3,4-f:3′,4′-j:4″,3″-n][1,4]oxazacyclopentadecin-13(10H)-one]", "values": [{"measurement": "TGI %", "setting": "[1]", "value": 93, "unit": "%"}, {"measurement": "TGI %", "setting": "[2]", "value": 82, "unit": "%"}, {"measurement": "TGI %", "setting": "[3]; oral 12.5 mg/kg QD", "value": 74, "unit": "%"}, {"measurement": "TGI %", "setting": "[3]; oral 25 mg/kg QD", "value": 94, "unit": "%"}, {"measurement": "TGI %", "setting": "[4]; oral 6.25 mg/kg QD", "value": 98.8, "unit": "%"}, {"measurement": "TGI %", "setting": "[4]; oral 12.5 mg/kg QD", "value": 189, "unit": "%"}, {"measurement": "TGI %", "setting": "[4]; oral 25 mg/kg QD, 5dOn-2dOff", "value": 200, "unit": "%"}, {"measurement": "TGI %", "setting": "[4]; oral 25 mg/kg QD", "value": 200, "unit": "%"}, {"measurement": "TGI %", "setting": "[5]", "value": 84, "unit": "%"}, {"measurement": "IC50", "setting": "[6]", "value": 0.55, "unit": "nM"}, {"measurement": "IC50", "setting": "[7]", "value": 1.3, "unit": "nM"}, {"measurement": "IC50", "setting": "[8]", "value": 513, "unit": "nM"}, {"measurement": "IC50", "setting": "[9]", "value": 22.9, "unit": "nM"}, {"measurement": "IC50", "setting": "[10]", "value": 0.446, "unit": "nM"}, {"measurement": "IC50", "setting": "[11]", "value": 0.134, "unit": "nM"}, {"measurement": "IC50", "setting": "[12]", "value": 0.165, "unit": "nM"}, {"measurement": "IC50", "setting": "[13]", "value": 5.87, "unit": "nM"}, {"measurement": "Alternative Splicing Ratio BCL-xS/xL 6-hour", "setting": "[14]; MV-4-11, 2 nM", "value": 0.7}, {"measurement": "Alternative Splicing Ratio BCL-xS/xL 24-hour", "setting": "[14]; MV-4-11, 2 nM", "value": 0.6}, {"measurement": "Alternative Splicing Ratio BCL-xS/xL 6-hour", "setting": "[14]; MV-4-11, 10 nM", "value": 1.1}, {"measurement": "Alternative Splicing Ratio BCL-xS/xL 24-hour", "setting": "[14]; MV-4-11, 10 nM", "value": 0.9}, {"measurement": "Alternative Splicing Ratio BCL-xS/xL 6-hour", "setting": "[14]; MV-4-11, 50 nM", "value": 1.4}, {"measurement": "Alternative Splicing Ratio BCL-xS/xL 24-hour", "setting": "[14]; MV-4-11, 50 nM", "value": 1.3}, {"measurement": "Alternative Splicing Ratio BCL-xS/xL 6-hour", "setting": "[14]; MV-4-11, 250 nM", "value": 3.7}, {"measurement": "Alternative Splicing Ratio BCL-xS/xL 24-hour", "setting": "[14]; MV-4-11, 250 nM", "value": 7.3}]}
